Data from patent US12534452B2, “N-(1H-imidazol-2-yl)benzamide compound and pharmaceutical composition comprising the same as active ingredient” (KAINOS MEDICINE, INC., priority 2019, dated 2026).

Each compound was assayed against IRAK4 (Homo sapiens (Human), UniProt Q9NWZ3) (assay: In vitro IRAK4 phosphorylation activity assay). Conditions: [γ-33P]-ATP, myelin basic protein substrate, 40 minutes at room temperature; categories.
Format: biochemical
Summary of the method: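 Radiometric filter-binding assay, no compound–kinase preincubation; 8 mM MOPS pH 7.0, 0.2 mM EDTA, 10 mM Mg acetate, 0.33 mg/mL myelin basic protein substrate, [γ-33P]-ATP. Reaction 40 min at room temperature, stopped with phosphoric acid, scintillation counting; IC50 reported in categories.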

IRAK4, sequence (Q9NWZ3 whole entry): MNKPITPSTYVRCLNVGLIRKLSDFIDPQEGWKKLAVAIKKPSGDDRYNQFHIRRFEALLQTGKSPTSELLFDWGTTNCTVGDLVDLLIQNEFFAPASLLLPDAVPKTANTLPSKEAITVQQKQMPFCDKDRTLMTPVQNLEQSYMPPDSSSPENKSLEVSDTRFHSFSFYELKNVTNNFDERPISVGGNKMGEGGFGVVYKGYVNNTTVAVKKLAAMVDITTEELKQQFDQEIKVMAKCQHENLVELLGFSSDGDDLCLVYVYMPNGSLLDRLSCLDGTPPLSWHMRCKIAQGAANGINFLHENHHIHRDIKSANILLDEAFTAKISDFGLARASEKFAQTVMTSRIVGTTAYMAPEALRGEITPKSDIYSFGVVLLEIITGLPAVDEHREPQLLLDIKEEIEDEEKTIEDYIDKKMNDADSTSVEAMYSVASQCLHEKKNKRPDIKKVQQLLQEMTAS

IC50	Compound
< 50 nM	COC1CCC(NC(=O)CCCc2cn(-c3ccccc3)c(NC(=O)c3cccc(-c4cnn(C)c4)c3)n2)CC1 (stereo not shown) [Example 161, N-(4-(4-((4-methoxycyclohexyl)amino)-4-oxobutyl)-1-phenyl-1H-imidazol-2-yl)-3-(1-methyl-1H-pyrazol-4-yl)benzamide]
< 50 nM	CN1CCCN(C(=O)CCc2cn(-c3ccccc3)c(NC(=O)c3cccc(-c4cnn(C)c4)c3)n2)CC1 [Example 195, N-(4-(3-(4-methyl-1,4-diazepan-1-yl)-3-oxopropyl)-1-phenyl-1H-imidazol-2-yl)-3-(1-methyl-1H-pyrazol-4-yl)benzamide]
< 50 nM	Cn1cc(-c2cccc(C(=O)Nc3nc(CCCC(=O)NCCCO)cn3-c3ccccc3)c2)cn1 [Example 165, N-(4-(4-((3-hydroxypropyl)amino)-4-oxobutyl)-1-phenyl-1H-imidazol-2-yl)-3-(1-methyl-1H-pyrazol-4-yl)benzamide]
< 50 nM	Cn1cc(-c2cccc(C(=O)Nc3nc(CCCC(=O)N4CCN(C(C)(C)C)CC4)cn3-c3ccccc3)c2)cn1 [Example 181, N-(4-(4-(4-(tert-butyl)piperazin-1-yl)-4-oxobutyl)-1-phenyl-1H-imidazol-2-yl)-3-(1-methyl-1H-pyrazol-4-yl)benzamide]
> 100 nM	CN1CCN(NC(=O)CCc2cn(-c3ccccc3)c(NC(=O)c3cccc(-c4cn[nH]c4)c3)n2)CC1 [Example 9, N-(4-(3-((4-methylpiperazin-1-yl)amino)-3-oxopropyl)-1-phenyl-1H-imidazol-2-yl)-3-(1H-pyrazol-4-yl)benzamide]
< 50 nM	Cn1cc(-c2cccc(C(=O)Nc3nc(CCCC(=O)NCCN4CCCCC4)cn3-c3ccccc3)c2)cn1 [Example 159, 3-(1-methyl-1H-pyrazol-4-yl)-N-(4-(4-oxo-4-((2-(piperidin-1-yl)ethyl)amino)butyl)-1-phenyl-1H-imidazol-2-yl)benzamide]
< 50 nM	O=C(Nc1nc(CCCCCC(=O)N2CCCCC2)cn1-c1ccccc1)c1cccc(-c2cn[nH]c2)c1 [Example 93, N-(4-(6-oxo-6-(piperidin-1-yl)hexyl)-1-phenyl-1H-imidazol-2-yl)-3-(1H-pyrazol-4-yl)benzamide]
50 to 100 nM	Cn1cc(-c2cccc(C(=O)Nc3nc(CCC(=O)N4CCNCC4)cn3-c3ccccc3)c2)cn1 [Example 203, 3-(1-methyl-1H-pyrazol-4-yl)-N-(4-(3-oxo-3-(piperazin-1-yl)propyl)-1-phenyl-1H-imidazol-2-yl)benzamide]
< 50 nM	CN1CCN(C(=O)CCCc2cn(-c3ccccc3)c(NC(=O)c3cccc(-c4ccc(N)nc4)c3)n2)CC1 [Example 274, 3-(6-aminopyridin-3-yl)-N-(4-(4-(4-methylpiperazin-1-yl)-4-oxobutyl)-1-phenyl-1H-imidazol-2-yl)benzamide]
< 50 nM	Cn1cc(-c2cccc(C(=O)Nc3nc(CCCC(=O)N4CCOCC4)cn3-c3ccccc3)c2)cn1 [Example 160, 3-(1-methyl-1H-pyrazol-4-yl)-N-(4-(4-morpholino-4-oxobutyl)-1-phenyl-H-imidazol-2-yl)benzamide]
< 50 nM	CN1CCN(C(=O)CCc2cn(-c3ccccc3)c(NC(=O)c3cccc(-c4cnn(C)c4)c3)n2)CC1 [Example 194, 3-(1-methyl-1H-pyrazol-4-yl)-N-(4-(3-(4-methylpiperazin-1-yl)-3-oxopropyl)-1-phenyl-1H-imidazol-2-yl)benzamide]
< 50 nM	Cn1cc(-c2cccc(C(=O)Nc3nc(CCCCN4CCCC4=O)cn3-c3ccccc3)c2)cn1 [Example 224, 3-(1-methyl-1H-pyrazol-4-yl)-N-(4-(4-(2-oxopyrrolidin-1-yl)butyl)-1-phenyl-1H-imidazol-2-yl)benzamide]
< 50 nM	Cn1cc(-c2cccc(C(=O)Nc3nc(CCCCCCN4CCCC4=O)cn3-c3ccccc3)c2)cn1 [Example 225, 3-(1-methyl-1H-pyrazol-4-yl)-N-(4-(6-(2-oxopyrrolidin-1-yl)hexyl)-1-phenyl-1H-imidazol-2-yl)benzamide]

The next lines start with the compound.

Compound	IC50
O=C(CCCc1cn(-c2ccccc2)c(NC(=O)c2cccc(-c3cn[nH]c3)c2)n1)Nc1ccc(F)cc1 [Example 64, N-(4-(4-((4-fluorophenyl)amino)-4-oxobutyl)-1-phenyl-1H-imidazol-2-yl)-3-(1H-pyrazol-4-yl)benzamide]	< 50 nM
O=C(Nc1nc(CCCCCCN2CCCCC2)cn1-c1ccccc1)c1cccc(-c2ccccn2)c1 [Example 269, N-(1-phenyl-4-(6-(piperidin-1-yl)hexyl)-1H-imidazol-2-yl)-3-(pyridin-2-yl)benzamide]	> 100 nM
C[C@@H]1CCCN1C(=O)CCc1cn(-c2ccccc2)c(NC(=O)c2cccc(-c3cn[nH]c3)c2)n1 [Example 23, (R)—N-(4-(3-(2-methylpyrrolidin-1-yl)-3-oxopropyl)-1-phenyl-1H-imidazol-2-yl)-3-(1H-pyrazol-4-yl)benzamide]	< 50 nM
O=C(Nc1nc(CCN2CCCCC2)cn1-c1ccccc1)c1cccc(-c2cn[nH]c2)c1 [Example 104, N-(1-phenyl-4-(2-(piperidin-1-yl)ethyl)-1H-imidazol-2-yl)-3-(1H-pyrazol-4-yl)benzamide]	> 100 nM
O=C(CCc1cn(-c2ccccc2)c(NC(=O)c2cccc(-c3cn[nH]c3)c2)n1)Nc1ccccc1 [Example 6, N-(4-(3-oxo-3-(phenylamino)propyl)-1-phenyl-1H-imidazol-2-yl)-3-(1H-pyrazol-4-yl)benzamide]	< 50 nM
O=C(Nc1nc(CCCCCCN2CCCCC2)cn1-c1ccc(F)cc1)c1cccc(-c2cn[nH]c2)c1 [Example 301, N-(1-(4-fluorophenyl)-4-(6-(piperidin-1-yl)hexyl)-1H-imidazol-2-yl)-3-(1H-pyrazol-4-yl)benzamide]	< 50 nM
O=C(CCCCc1cn(-c2ccccc2)c(NC(=O)c2cccc(-c3cn[nH]c3)c2)n1)NC1CCCCC1 [Example 89, N-(4-(5-(cyclohexylamino)-5-oxopentyl)-1-phenyl-1H-imidazol-2-yl)-3-(1H-pyrazol-4-yl)benzamide]	< 50 nM
O=C(CCCc1cn(-c2ccccc2)c(NC(=O)c2cccc(-c3ccc4cn[nH]c4c3)c2)n1)NC1CC1 [Example 250, N-(4-(4-(cyclopropylamino)-4-oxobutyl)-1-phenyl-1H-imidazol-2-yl)-3-(1H-indazol-6-yl)benzamide]	< 50 nM
COC[C@H]1CCCN1NC(=O)CCc1cn(-c2ccccc2)c(NC(=O)c2cccc(-c3cn[nH]c3)c2)n1 [Example 17, (R)—N-(4-(3-((2-(methoxymethyl)pyrrolidin-1-yl)amino)-3-oxopropyl)-1-phenyl-1H-imidazol-2-yl)-3-(1H-pyrazol-4-yl)benzamide]	> 100 nM
CNC(=O)Cc1cn(-c2ccccc2)c(NC(=O)c2cccc(-c3cn[nH]c3)c2)n1 [Example 41, N-(4-(2-(methylamino)-2-oxoethyl)-1-phenyl-1H-imidazol-2-yl)-3-(1H-pyrazol-4-yl)benzamide]	> 100 nM
CNC(=O)CCCCc1cn(-c2ccccc2)c(NC(=O)c2cccc(-c3cn[nH]c3)c2)n1 [Example 80, N-(4-(5-(methylamino)-5-oxopentyl)-1-phenyl-1H-imidazol-2-yl)-3-(1H-pyrazol-4-yl)benzamide]	< 50 nM
O=C(CCc1cn(-c2ccccc2)c(NC(=O)c2cccc(-c3cn[nH]c3)c2)n1)NN1CCCCC1 [Example 8, N-(4-(3-oxo-3-(piperidin-1-ylamino)propyl)-1-phenyl-1H-imidazol-2-yl)-3-(1H-pyrazol-4-yl)benzamide]	50 to 100 nM
